According to patent publication US10294202B2, “Pyrrolidinones as herbicides” (FMC Corporation, priority 2013, dated 2019):

Assays:
[1] = test system: corn; assay: Test A pre-/postemergence herbicide test; format: in vivo, Zea mays
Summary of the method: (§1)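 Directed soil spray to seeded pots (preemergence) or spray onto one- to two-leaf seedlings 2–10 cm tall (postemergence); loam/sand substrate throughout. Evaluated visually after about 10 days against untreated plants, 0 = no effect, 100 = complete control.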

[2] = test system: giant foxtail; assay: Test A pre-/postemergence herbicide test; format: in vivo, Setaria faberii
Summary of the method: as §1

[3] = test system: velvetleaf; assay: Test A pre-/postemergence herbicide test; format: in vivo, Abutilon theophrasti
Summary of the method: as §1

[4] = test system: rice; assay: Test B flooded paddy test; format: in vivo, Oryza sativa; details: Flood, scale of 0 to 100 where 0 is no effect and 100 is complete control
Summary of the method: (§2)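 Visual ratings from 0, meaning no effect, up to 100, meaning complete control, were made by comparison with untreated controls 13 to 15 days after treatment. Test compounds went straight into floodwater standing 3 cm over the soil of pots holding 2-leaf seedlings.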

[5] = test system: barnyardgrass; assay: Test A pre-/postemergence herbicide test; format: in vivo, Echinochloa crus-galli
Summary of the method: as §1

[6] = test system: ducksalad; assay: Test B flooded paddy test; format: in vivo, Heteranthera limosa; details: Flood, scale of 0 to 100 where 0 is no effect and 100 is complete control
Summary of the method: as §2

[7] = test system: barnyardgrass; assay: Test B flooded paddy test; format: in vivo, Echinochloa crus-galli; details: Flood, scale of 0 to 100 where 0 is no effect and 100 is complete control
Summary of the method: as §2

[8] = test system: wheat; assay: Test A pre-/postemergence herbicide test; format: in vivo, Triticum aestivum
Summary of the method: as §1

[9] = test system: morningglory; assay: Test A pre-/postemergence herbicide test; format: in vivo, Ipomoea spp.
Summary of the method: as §1

[10] = test system: pigweed; assay: Test A pre-/postemergence herbicide test; format: in vivo, Amaranthus retroflexus
Summary of the method: as §1

[11] = test system: crabgrass, large; assay: Test A pre-/postemergence herbicide test; format: in vivo, Digitaria sanguinalis
Summary of the method: as §1

[12] = test system: sedge, umbrella; assay: Test B flooded paddy test; format: in vivo, Cyperus difformis; details: Flood, scale of 0 to 100 where 0 is no effect and 100 is complete control
Summary of the method: as §2

[13] = Postemergence, 125 g ai/ha, 0 to 100 scale, 0 is no effect, 100 is complete control
[14] = Postemergence, 500 g ai/ha, 0 to 100 scale (0 no effect, 100 complete control)
[15] = Preemergence, 125 g ai/ha, 0 to 100 scale where 0 is no effect and 100 is complete control
[16] = preemergence, 500 g ai/ha, 0 to 100 scale, 0 is no effect and 100 is complete control
[17] = Postemergence, 125 g ai/ha, visual rating on 0 to 100 scale (0 no effect, 100 complete control), approx. 10 days

Structure (SMILES): O=C1NCC(c2ccc(OC(F)(F)F)cc2)C1C(=O)Nc1cccc(F)c1F (racemic) [Compound 257]
- Plant response rating, Corn [1, 13]: 0
- Plant response rating, Corn [1, 14]: 20
- Plant response rating, Corn [1, 15]: 0
- Plant response rating, Corn [1, 16]: 0
- Plant response rating, Foxtail, Giant [2, 13]: 80
- Plant response rating, Foxtail, Giant [2, 14]: 90
- Plant response rating, Foxtail, Giant [2, 15]: 80
- Plant response rating, Foxtail, Giant [2, 16]: 90
- Plant response rating, Velvetleaf [3, 13]: 0
- Plant response rating, Velvetleaf [3, 14]: 0
- Plant response rating, Velvetleaf [3, 15]: 0
- Plant response rating, Velvetleaf [3, 16]: 0
- Plant response rating, Rice ([4]; 250 g ai/ha): 15
- Plant response rating, Barnyardgrass [5, 13]: 50
- Plant response rating, Barnyardgrass [5, 14]: 80
- Plant response rating, Barnyardgrass [5, 15]: 40
- Plant response rating, Barnyardgrass [5, 16]: 80
- Plant response rating, Ducksalad ([6]; 250 g ai/ha): 70
- Plant response rating, Barnyardgrass ([7]; 250 g ai/ha): 0
- Plant response rating, Wheat [8, 13]: 20
- Plant response rating, Wheat [8, 14]: 30
- Plant response rating, Wheat [8, 15]: 0
- Plant response rating, Wheat [8, 16]: 0
- Plant response rating, Morningglory [9, 13]: 0
- Plant response rating, Morningglory [9, 14]: 0
- Plant response rating, Morningglory [9, 15]: 0
- Plant response rating, Morningglory [9, 16]: 0
- Plant response rating, Pigweed [10, 13]: 0
- Plant response rating, Pigweed [10, 14]: 0
- Plant response rating, Pigweed [10, 15]: 0
- Plant response rating, Pigweed [10, 16]: 0
- Plant response rating, Crabgrass, Large [11, 13]: 90
- Plant response rating, Crabgrass, Large [11, 14]: 90
- Plant response rating, Crabgrass, Large [11, 15]: 90
- Plant response rating, Crabgrass, Large [11, 16]: 90
- Plant response rating, Sedge, Umbrella ([12]; 250 g ai/ha): 0

Structure (SMILES): O=C1NCC(c2ccc(C(F)(F)F)cc2F)C1C(=O)Nc1ccccc1F (racemic) [Compound 259]
- Plant response rating, Corn [1, 13]: 0
- Plant response rating, Corn [1, 14]: 0
- Plant response rating, Corn [1, 15]: 0
- Plant response rating, Corn [1, 16]: 0
- Plant response rating, Foxtail, Giant [2, 13]: 50
- Plant response rating, Foxtail, Giant [2, 14]: 70
- Plant response rating, Foxtail, Giant [2, 15]: 60
- Plant response rating, Foxtail, Giant [2, 16]: 90
- Plant response rating, Velvetleaf [3, 13]: 0
- Plant response rating, Velvetleaf [3, 14]: 0
- Plant response rating, Velvetleaf [3, 15]: 0
- Plant response rating, Velvetleaf [3, 16]: 0
- Plant response rating, Rice ([4]; 1000 g ai/ha): 10
- Plant response rating, Barnyardgrass [5, 13]: 50
- Plant response rating, Barnyardgrass [5, 14]: 70
- Plant response rating, Barnyardgrass [5, 15]: 10
- Plant response rating, Barnyardgrass [5, 16]: 80
- Plant response rating, Ducksalad ([6]; 1000 g ai/ha): 90
- Plant response rating, Barnyardgrass ([7]; 1000 g ai/ha): 20
- Plant response rating, Wheat [8, 13]: 0
- Plant response rating, Wheat [8, 14]: 0
- Plant response rating, Wheat [8, 15]: 0
- Plant response rating, Wheat [8, 16]: 0
- Plant response rating, Morningglory [9, 13]: 0
- Plant response rating, Morningglory [9, 14]: 0
- Plant response rating, Morningglory [9, 15]: 0
- Plant response rating, Morningglory [9, 16]: 0
- Plant response rating, Pigweed [10, 13]: 0
- Plant response rating, Pigweed [10, 14]: 0
- Plant response rating, Pigweed [10, 15]: 0
- Plant response rating, Pigweed [10, 16]: 0
- Plant response rating, Crabgrass, Large [11, 13]: 80
- Plant response rating, Crabgrass, Large [11, 14]: 90
- Plant response rating, Crabgrass, Large [11, 16]: 90
- Plant response rating, Sedge, Umbrella ([12]; 1000 g ai/ha): 10

Structure (SMILES): O=C1NCC(c2ccc(C(F)(F)F)nc2)C1C(=O)Nc1ccccc1C(F)(F)F (racemic) [Compound 264]
- Plant response rating, Corn [1, 13]: 0
- Plant response rating, Corn [1, 14]: 0
- Plant response rating, Corn [1, 15]: 0
- Plant response rating, Corn [1, 16]: 0
- Plant response rating, Foxtail, Giant [2, 13]: 60
- Plant response rating, Foxtail, Giant [2, 14]: 80
- Plant response rating, Foxtail, Giant [2, 15]: 80
- Plant response rating, Foxtail, Giant [2, 16]: 90
- Plant response rating, Velvetleaf [3, 14]: 30
- Plant response rating, Velvetleaf [3, 15]: 0
- Plant response rating, Velvetleaf [3, 16]: 0
- Plant response rating, Rice ([4]; 1000 g ai/ha): 0
- Plant response rating, Barnyardgrass [5, 13]: 30
- Plant response rating, Barnyardgrass [5, 14]: 80
- Plant response rating, Barnyardgrass [5, 15]: 50
- Plant response rating, Barnyardgrass [5, 16]: 90
- Plant response rating, Ducksalad ([6]; 1000 g ai/ha): 100
- Plant response rating, Barnyardgrass ([7]; 1000 g ai/ha): 0
- Plant response rating, Wheat [8, 14]: 0
- Plant response rating, Wheat [8, 15]: 0
- Plant response rating, Wheat [8, 16]: 0
- Plant response rating, Morningglory [9, 14]: 0
- Plant response rating, Morningglory [9, 15]: 0
- Plant response rating, Morningglory [9, 16]: 0
- Plant response rating, Pigweed [10, 14]: 60
- Plant response rating, Pigweed [10, 15]: 50
- Plant response rating, Pigweed [10, 16]: 80
- Plant response rating, Crabgrass, Large [11, 13]: 80
- Plant response rating, Crabgrass, Large [11, 14]: 90
- Plant response rating, Crabgrass, Large [11, 15]: 100
- Plant response rating, Crabgrass, Large [11, 16]: 100
- Plant response rating, Sedge, Umbrella ([12]; 1000 g ai/ha): 0

Structure (SMILES): O=C1NCC(c2ccc(Cl)c(C(F)(F)F)c2)C1C(=O)Nc1cccc(F)c1F (racemic) [Compound 268]
- Plant response rating, Corn [1, 13]: 0
- Plant response rating, Corn [1, 14]: 40
- Plant response rating, Corn [1, 15]: 0
- Plant response rating, Corn [1, 16]: 80
- Plant response rating, Foxtail, Giant [2, 13]: 80
- Plant response rating, Foxtail, Giant [2, 14]: 90
- Plant response rating, Foxtail, Giant [2, 15]: 70
- Plant response rating, Foxtail, Giant [2, 16]: 80
- Plant response rating, Velvetleaf [3, 15]: 0
- Plant response rating, Velvetleaf [3, 16]: 0
- Plant response rating, Rice ([4]; 1000 g ai/ha): 20
- Plant response rating, Barnyardgrass [5, 13]: 50
- Plant response rating, Barnyardgrass [5, 14]: 70
- Plant response rating, Barnyardgrass [5, 15]: 70
- Plant response rating, Barnyardgrass [5, 16]: 80
- Plant response rating, Ducksalad ([6]; 1000 g ai/ha): 100
- Plant response rating, Barnyardgrass ([7]; 1000 g ai/ha): 0
- Plant response rating, Wheat [8, 17]: 0
- Plant response rating, Wheat [8, 14]: 0
- Plant response rating, Wheat [8, 15]: 0
- Plant response rating, Wheat [8, 16]: 0
- Plant response rating, Morningglory [9, 17]: 20
- Plant response rating, Morningglory [9, 14]: 0
- Plant response rating, Morningglory [9, 15]: 0
- Plant response rating, Morningglory [9, 16]: 60
- Plant response rating, Pigweed [10, 17]: 50
- Plant response rating, Pigweed [10, 14]: 80
- Plant response rating, Pigweed [10, 15]: 30
- Plant response rating, Pigweed [10, 16]: 60
- Plant response rating, Crabgrass, Large [11, 13]: 70
- Plant response rating, Crabgrass, Large [11, 14]: 80
- Plant response rating, Crabgrass, Large [11, 15]: 80
- Plant response rating, Crabgrass, Large [11, 16]: 90
- Plant response rating, Sedge, Umbrella ([12]; 1000 g ai/ha): 0
